Measured values: US20230310441A1, “TREATMENT FOR SCHIZOPHRENIA” (TAKEDA PHARMACEUTICAL COMPANY, priority 2020, published 2023)
Like-named read-outs stand apart in the source and are kept apart here.

Experiments:
[1] = Phase 2 crossover study: plasma pharmacokinetics in schizophrenia subjects; type: in vivo, human; details: for AUC(0-inf) / Cmax / Tmax: human, plasma, schizophrenia subjects; for Tmax: read-out: median tmax
Experimental: On Day 1 of each treatment period, following study drug administration, and commencing at approximately 2 h post-dose, subjects underwent PD tests for a total of approximately 4 h. Blood samples were collected at defined times after dosing to assess the PK of Compound (I). After the last PK collection at 6 h post-dose, subjects left the clinic. On Day 14 of each Treatment Period, subjects took the second set of PD tests along with a single time point PK collection. Samples for PK were also collected on Day 49 and at the final visit of the second treatment period. PD testing were performed in 3 blocks, separated by 2 breaks. The first block comprised the Grip Effort Task, the Progressive Ratio Test, and the Brief Assessment of Cognition in Schizophrenia (BACS). The BACS is a reliable and sensitive test battery specifically designed to efficiently assesses important cognitive deficits in patients with schizophrenia; accordingly, the BACS is suited for repeated testing in a clinical trial setting (Keefe et al., 2004). […] The following domains of cognitive function found to be consistently impaired in schizophrenia were assessed in this study: verbal memory; working memory; motor function; attention and processing speed; verbal fluency; and executive function. A composite score was calculated from each of the subset scores and used as a single endpoint for the assessment.
Dosing involved participants drinking a single bottle of oral suspension, containing either Compound (I) (40 or 160 mg Compound (I) mixed with 70 mL Tween/MC vehicle) or placebo (70 mL of Tween/MC vehicle) (Table 11). Participants were instructed to drink the full contents of the bottle, which was then rinsed twice with 35 mL water, which participants also drank. The initial dose level selected was 40 mg, which was adjusted to 160 mg following a planned interim analysis of available PK and safety data from emerging first-in-human cohort data.
The PK set consisted of all subjects who received at least 1 dose of study drug and had at least 1 measurable plasma concentration.
Compound (I) plasma concentrations were tabulated and summarized by descriptive statistics at each scheduled time point (mean, median, SD, percent coefficient of variation, minimum, and maximum) for each treatment and dose level. Individual subject plasma concentration data were listed.
The plasma PK parameters of Compound (I) were determined from the concentration-time profiles for all evaluable subjects. Actual sampling times, rather than scheduled sampling times, were used in all computations involving sampling times. The following PK parameters were calculated using non-compartmental analysis using Phoenix WinNonLin (version 6.3 or higher): area under the plasma concentration-time curve from time 0 to time t, area under the plasma concentration-time curve from time 0 to infinity (AUC∞), maximum observed plasma concentration (Cmax), time of first occurrence of Cmax (tmax), and terminal disposition phase half-life.

[2] = Phase 1 FIH study: safety and tolerability (TEAEs) in healthy participants; type: in vivo, human
Experimental: A phase 1 first-in-human (FIH) study was conducted at a single site in the United States to evaluate the safety, tolerability, and pharmacokinetics (PK) of Compound (I). Specifically, Compound (I) was tested to evaluate the safety, tolerability, and PK of single and multiple doses in healthy participants and as add-on therapy to antipsychotics in participants with stable schizophrenia. The phase I study also assessed the oral bioavailability of Compound (I) in healthy participants administered a tablet formulation compared to an oral suspension formulation in a fasted state, as well the effect of a high-fat, high-calorie meal on the PK of a single dose of a tablet formulation of Compound (I). Additional exploratory pharmacodynamic analysis was undertaken in patients with stable schizophrenia to inform future studies.
Cohorts in Parts 1 and 2 were randomized to receive either Compound (I) or placebo in a 6:2 ratio. Cohorts in Part 3 were randomized in a 1:1 ratio, while the cohort in Part 4 was randomized in a 2:1 ratio.
Part 1 was a double-blind, SRD study in healthy adults, utilizing an alternate panel design (cohorts 1, 2) and sequential panel design (cohorts 3-5). Cohorts 1 and 2 were part of a two-period, alternating-panel, double-blind study of Compound (I) administered as an oral suspension (5 mg, 10 mg, 20 mg, or 40 mg) or matched placebo, with a washout period of at least 7 days between treatment periods. Cohorts 3-5 were part of a sequential-panel, double-blind study to evaluate the SRDs of Compound (I) (80, 120, or 160 mg, respectively) or matched placebo. Although planned, all subsequent doses after the dose of 80 mg were determined based on emerging safety, tolerability, and PK data from the preceding cohorts.
In Part 2, participants received either placebo on all dosing days or a loading dose of Compound (I) on Day 1 and a maintenance dose of half the initial dose on Days 8, 15 and 22, administered as an oral suspension. Baseline measurements were obtained on Day −2, and study-specific measurements were obtained following oral dose administrations on Days 1, 8, 15, and 22.
Part 3 was a randomized, open-label, single-dose, parallel design study to evaluate the bioavailability of a Compound (I) tablet formulation relative to a Compound (I) oral suspension formulation and the effect of food on the PK in healthy participants. The immediate release tablet contained mannitol, microcrystalline cellulose, and other commonly used excipients. Participants were randomized 1:1 to receive a single 40 mg dose of Compound (I) as a tablet after either 10 h overnight fast, or 30 min after beginning ingestion of a high-fat, high-calorie breakfast.
Safety measurements used in the phase 1 study included treatment-emergent adverse events (TEAEs), physical examinations, weight, height, BMI, vital signs, clinical laboratory evaluations, pregnancy monitoring, and ECG procedures.
TEAEs were defined as any adverse event that occurred or worsened after receiving the first dose of Compound (I) and within 6 weeks after the last dose of Compound (I). Participants experiencing two or more different TEAEs were counted only once. Frequent TEAEs were defined as adverse events that occurred in at least two participants in any treatment. Participants were evaluated with respect to mood and alertness (BL-VAS) and suicidality (C-SSRS).

[3] = Separate single dose oral study: half-life in dogs; details: dog, in vivo; single dose oral administration of 5-15 mg/kg
Text: The mean t1/2z for Compound (I) reflects the prolonged half-life of Compound (I) in humans. […] In that study, the mean human half-life of Compound (I) (approximately 11 days) was substantially higher than the 2-4 hr mean half-life observed in rats and dogs.

[4] = Part 2 MRD, 40/20 mg, N = 6, participants (percent)
[5] = Part 2 MRD, 80/40 mg, N = 6, participants (percent)
[6] = Part 2 MRD, 120/60 mg, N = 6, participants (percent)
[7] = Part 2 MRD, 160/80 mg, N = 6, participants (percent)

C[C@H](NC(=O)Cn1nnc2ccccc2c1=O)c1ccc(OC(F)(F)F)cc1 [Compound (I), (S)-2-(4-oxobenzo[d][1,2,3]triazin-3(4H)-yl)-N-(1-(4-(trifluoromethoxy)phenyl)ethyl)acetamide]
increase of mean AUC∞ for a 4-fold increase in dose ([1]; 40 to 160 mg): 3.5 fold | increase of mean Cmax for a 4-fold increase in dose ([1]; 40 to 160 mg): 2.8 fold | AUC(0-inf) ([1]; single oral dose 40 mg): 217 µg·h/mL | Cmax ([1]; single oral dose 40 mg): 549 ng/mL | Tmax ([1]; single oral dose 40 mg): 1.83 h | AUC(0-inf) ([1]; single oral dose 160 mg): 763 µg·h/mL | Cmax ([1]; single oral dose 160 mg): 1520 ng/mL | Tmax ([1]; single oral dose 160 mg): 1.92 h | TEAEs related to the study drug (investigator) ([2]; Part 1 (SRD)): None of the TEAEs were considered to be related to the study drug | participants who experienced a TEAE ([2]; Part 1 (SRD), participants who received Compound (I)): 20.0% | Any TEAE [2, 4]: 4 (66.7) | TEAE Mild [2, 4]: 4 (66.7) | TEAE Not related [2, 4]: 4 (66.7) | Any TEAE [2, 5]: 4 (66.7) | TEAE Mild [2, 5]: 4 (66.7) | TEAE Not related [2, 5]: 3 (50.0) | TEAE Related [2, 5]: 1 (16.7) | Any TEAE [2, 6]: 3 (50.0) | TEAE Mild [2, 6]: 2 (33.3) | TEAE Moderate [2, 6]: 1 (16.7) | TEAE Not related [2, 6]: 3 (50.0) | Any TEAE [2, 7]: 5 (83.3) | TEAE Mild [2, 7]: 5 (83.3) | TEAE Not related [2, 7]: 2 (33.3) | TEAE Related [2, 7]: 3 (50.0) | participants who experienced a TEAE ([2]; Part 3, single dose after overnight fast of at least 10 h, tablet): 11.1% | participants who experienced a TEAE ([2]; Part 3, single dose following high-fat, high-calorie breakfast, tablet): 22.2% | discontinuations due to TEAEs ([2]; phase 1 study, all parts): No discontinuations due to TEAEs occurred | deaths, serious adverse events, or other significant TEAEs ([2]; phase 1 study, all parts, 114 randomized participants): No deaths, serious adverse events, or other significant TEAEs were reported | tolerability ([2]; phase 1 study, single and repeated oral doses, healthy volunteers and patients with stable schizophrenia): generally well-tolerated | headache frequency vs placebo ([2]; phase 1 study, frequency appeared to increase with higher doses): more frequently with Compound (I) than with placebo | half-life [3]: 120 to 240 min
